Read-outs that look alike come from different tables or passages of the source.
Columns and labels:
[1] = target: T1, ATM kinase (Homo sapiens, UniProt Q13315); test: In vitro ATM kinase assay (Cisbio HTRF, p53 substrate); format: biochemical; details: 30 μM ATP; for inhibition at 0.0001 µM: Conc. 0.1 nM; for inhibition at 0.0001 µM / inhibition at 0.001 µM / inhibition at 0.01 µM: read-out: Inh % (inhibitory effect on ATM kinase activity); for inhibition at 0.001 µM: Conc. 1 nM; for inhibition at 0.01 µM: Conc. 10 nM
T1 construct: purchased Eurofins 14-933
T1 sequence (Q13315 whole entry): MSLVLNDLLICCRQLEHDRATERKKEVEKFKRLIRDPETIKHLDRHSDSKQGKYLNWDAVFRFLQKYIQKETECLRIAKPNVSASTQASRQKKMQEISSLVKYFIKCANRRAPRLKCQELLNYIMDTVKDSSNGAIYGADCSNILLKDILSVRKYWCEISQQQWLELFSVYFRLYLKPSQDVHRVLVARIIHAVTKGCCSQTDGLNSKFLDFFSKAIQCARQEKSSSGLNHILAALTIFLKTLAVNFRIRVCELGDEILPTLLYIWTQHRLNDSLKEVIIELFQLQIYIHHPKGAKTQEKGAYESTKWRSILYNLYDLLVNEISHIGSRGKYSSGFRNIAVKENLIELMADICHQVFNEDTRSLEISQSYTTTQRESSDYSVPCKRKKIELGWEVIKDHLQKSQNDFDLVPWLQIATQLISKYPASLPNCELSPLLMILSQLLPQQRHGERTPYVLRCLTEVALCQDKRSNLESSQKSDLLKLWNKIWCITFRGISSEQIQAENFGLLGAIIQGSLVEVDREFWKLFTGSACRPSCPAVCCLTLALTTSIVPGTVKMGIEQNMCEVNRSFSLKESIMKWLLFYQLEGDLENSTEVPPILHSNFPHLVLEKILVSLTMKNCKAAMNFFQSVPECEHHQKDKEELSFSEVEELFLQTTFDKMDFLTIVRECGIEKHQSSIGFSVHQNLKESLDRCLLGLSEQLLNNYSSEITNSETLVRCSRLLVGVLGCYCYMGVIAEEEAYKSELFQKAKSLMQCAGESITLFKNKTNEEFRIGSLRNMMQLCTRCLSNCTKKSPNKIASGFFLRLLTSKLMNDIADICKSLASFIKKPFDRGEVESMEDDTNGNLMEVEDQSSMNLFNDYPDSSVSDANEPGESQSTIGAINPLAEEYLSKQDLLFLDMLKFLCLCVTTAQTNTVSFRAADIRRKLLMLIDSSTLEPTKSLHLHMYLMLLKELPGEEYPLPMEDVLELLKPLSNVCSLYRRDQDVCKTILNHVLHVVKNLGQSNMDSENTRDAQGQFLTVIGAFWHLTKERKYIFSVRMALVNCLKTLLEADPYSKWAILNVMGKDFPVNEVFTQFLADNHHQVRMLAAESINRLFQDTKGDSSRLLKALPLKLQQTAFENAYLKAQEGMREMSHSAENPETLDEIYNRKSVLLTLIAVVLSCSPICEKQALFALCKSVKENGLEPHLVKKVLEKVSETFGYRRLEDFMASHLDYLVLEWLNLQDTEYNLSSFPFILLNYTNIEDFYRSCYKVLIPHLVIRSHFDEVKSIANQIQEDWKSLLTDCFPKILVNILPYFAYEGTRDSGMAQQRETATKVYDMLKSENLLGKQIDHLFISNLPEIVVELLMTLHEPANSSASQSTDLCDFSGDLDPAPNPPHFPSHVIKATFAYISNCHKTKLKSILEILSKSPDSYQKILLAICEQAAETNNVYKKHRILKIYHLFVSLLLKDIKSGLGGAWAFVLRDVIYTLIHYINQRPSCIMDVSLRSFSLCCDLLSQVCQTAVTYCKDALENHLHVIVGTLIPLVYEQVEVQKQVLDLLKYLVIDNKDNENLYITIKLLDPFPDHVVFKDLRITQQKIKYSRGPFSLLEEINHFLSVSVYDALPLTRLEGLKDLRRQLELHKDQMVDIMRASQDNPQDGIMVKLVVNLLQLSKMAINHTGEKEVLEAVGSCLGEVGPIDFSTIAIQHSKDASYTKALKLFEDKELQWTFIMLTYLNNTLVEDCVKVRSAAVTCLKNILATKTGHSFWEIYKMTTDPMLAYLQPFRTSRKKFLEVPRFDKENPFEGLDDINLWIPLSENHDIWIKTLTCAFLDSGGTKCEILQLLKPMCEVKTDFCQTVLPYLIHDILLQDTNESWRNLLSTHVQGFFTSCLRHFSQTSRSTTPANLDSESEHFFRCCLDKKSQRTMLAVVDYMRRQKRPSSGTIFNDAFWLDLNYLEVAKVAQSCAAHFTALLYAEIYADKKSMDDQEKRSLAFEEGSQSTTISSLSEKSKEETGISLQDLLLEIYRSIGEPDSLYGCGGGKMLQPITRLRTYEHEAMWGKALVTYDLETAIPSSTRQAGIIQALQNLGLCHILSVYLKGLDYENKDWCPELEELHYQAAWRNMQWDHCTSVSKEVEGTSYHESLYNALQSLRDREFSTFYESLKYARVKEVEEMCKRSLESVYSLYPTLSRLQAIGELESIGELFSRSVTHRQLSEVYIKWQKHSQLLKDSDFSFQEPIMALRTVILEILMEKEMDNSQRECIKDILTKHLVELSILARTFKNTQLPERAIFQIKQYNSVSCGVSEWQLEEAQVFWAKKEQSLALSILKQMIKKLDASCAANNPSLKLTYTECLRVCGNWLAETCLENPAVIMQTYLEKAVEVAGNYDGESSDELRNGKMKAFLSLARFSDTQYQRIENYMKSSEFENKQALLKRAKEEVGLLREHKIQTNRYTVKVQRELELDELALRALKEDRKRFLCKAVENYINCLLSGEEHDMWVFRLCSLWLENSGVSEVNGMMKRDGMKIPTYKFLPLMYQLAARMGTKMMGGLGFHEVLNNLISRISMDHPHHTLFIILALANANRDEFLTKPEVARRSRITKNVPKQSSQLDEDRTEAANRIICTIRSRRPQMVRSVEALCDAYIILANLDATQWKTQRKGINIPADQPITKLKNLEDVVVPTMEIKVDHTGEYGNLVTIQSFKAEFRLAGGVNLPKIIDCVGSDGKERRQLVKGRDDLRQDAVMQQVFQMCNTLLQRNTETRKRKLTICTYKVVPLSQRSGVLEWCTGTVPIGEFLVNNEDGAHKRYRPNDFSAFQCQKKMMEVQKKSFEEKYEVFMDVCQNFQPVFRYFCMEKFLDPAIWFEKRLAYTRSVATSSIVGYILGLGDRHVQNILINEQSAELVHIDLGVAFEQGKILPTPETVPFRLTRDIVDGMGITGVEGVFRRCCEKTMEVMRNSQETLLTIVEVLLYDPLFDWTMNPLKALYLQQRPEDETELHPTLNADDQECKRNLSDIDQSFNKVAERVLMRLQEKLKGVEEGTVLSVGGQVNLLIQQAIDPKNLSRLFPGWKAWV
Procedure: Determination of the Inhibitory Effect In Vitro of the Compound of Example 2 and its Analogues on ATM Using In Vitro ATM Kinase Assay
ATM enzymatic activity was measured using Cisbio's HTRF reagent in a 384-well plate (Greiner, #784075). […] The mixtures were centrifuged at 1000 rpm for 1 minute, and reacted in dark for 30 minutes at room temperature. Then, 5 μL of EDTA termination solution (250 mm) was added to terminate the reaction. After 5 μL of detection mixture (Anti-phospho-p53 (ser15)-K (Cisbio, #61P08KAE, 0.084 ng/μL) and Anti-GST-d2 (Cisbio, #61GSTDLA, 5.00 ng/μL)) was finally added to each well, the mixtures were cultured at room temperature over night, and the fluorescence values at 665 nm and 615 nm were measured on Envision 2104. The final concentration of each reagent of the experiment was as follows: 12.5 mM HEPES (pH8.0), 0.5% glycerol, 0.005% Brij-35, 0.625 mM DTT, 0.0125% BSA, 15 nM p53, 0.25 ng/μL ATM, 30 μM ATP, 2.5 mM Mg(AcO)2, 2.5 mM MnCl2, 62.5 mM EDTA, 0.021 ng/μL Anti-phospho-p53, 1.25 ng/μL Anti-GST-d2.
Relative fluorescence ratio was calculated: Ratio665 nm/615 nm−Ratiobackground, and inhibition rate %=(1−(relative fluorescence ratio of test compound well−relative fluorescence ratio of positive control well)/(relative fluorescence ratio of negative control well−relative fluorescence ratio of positive control well))×100 was calculated. Data were analyzed using GraphPad Prism6.0 and fitted using the curve equation: Y=Bottom+(Top−Bottom)/(1+10^((Log IC50−X)*HillSlope)), and IC50 values were calculated.

[2] = system: human breast cancer cell MDA-MB-468; test: MTT proliferation assay, MDA-MB-468; format: cell-based; details: Homo sapiens, MDA-MB-468, 168 h, 7 days, single agent, read-out: IC50, inhibition of proliferation of MDA-MB-468
Procedure: Determination of the Inhibitory Effect of the Compound of Example 2 and its Analogues on the Proliferation of Human Breast Cancer Cell MDA-MB-468 Using MTT Assay
The human breast cancer cells MDA-MB-468 were cultured in RPMI 1640 medium with 10% FBS and used at 90% confluence. The MDA-IVB-468 cells were digested with trypsinase and centrifuged at 800 rpm for 5 minutes. The supernatant was discarded and the cell pellets were resuspended with fresh medium and counted. Cells were seeded to 96-well cell culture plates with appropriate cell density and incubated overnight at 37° C., 5% CO2. […] 5 μL of solutions of each concentration was added to 120 μL of medium (diluted by 25 times) and mixed by shaking. The culture medium of cells cultured overnight was discarded and replaced with 195 μL/well of fresh medium (RPMI 1640+5% FBS) and 5 μL/well of diluted medium containing the test compound of corresponding concentrations (the final concentration of DMSO was 1%), and the culture plate was then returned to 5% CO2 incubator at 37° C. for 7 days (on the fourth day, dressing was changed once and culture was continued). On the day of experiment, culture medium was discarded and replaced with 100 μL/well of fresh serum-free DMEM medium containing MTT (0.5 mg/mL), and the culture was continued. After 4 hours, medium was discarded and replaced with 100 μL/well of DMSO, the plates were shaken for 10 minutes in darkness and the absorbance was measured at the wavelengths of 552 and 693 nm using a multi-function plate reader. Graph Pad Prism 6.0 was used to analyze the data. The inhibitory effects of compounds on cell proliferation were plotted based on cell viability vs. the logarithm of compound concentration. Cell viability %=(ODcompound−ODbackground)/(ODDMSO−ODbackground)×100.
Table 4 summarizes the inhibitory effect data (IC50) of some compounds on the proliferation of human breast cancer cell MDA-MB-468.

[3] = system: human colon cancer cell SW620; test: MTT proliferation assay in combination with CPT-11, SW620; format: cell-based; details: medium containing 205 nM CPT-11, 5 days, read-out: IC50, inhibition of proliferation of SW620 combined with CPT-11
Procedure: Determination of the Inhibitory Effect of the Compound of Example 2 and its Analogues in Combination with CPT-11 on the Proliferation of Human Colon Cancer Cell SW620 Using MTT Assay
The human colon cancer cells SW620 were cultured in RPMI 1640 medium with 10% FBS and used at about 90% confluence for experiments. The SW620 cells were digested with trypsinase and centrifuged at 800 rpm for 5 minutes. The supernatant was discarded and the cell pellets were resuspended with fresh medium (RPMI 1640+10% FBS). The cells were seeded into 96-well cell culture plates with appropriate cell density and incubated at 37° C. overnight in a 5% CO2 incubator. […] The first concentration was 1 μM or 0.333 μM, the last concentration was DMSO negative control (0 μM). 5 μL of solutions of each concentration was added to 120 μL of medium (a 25 times dilution) and mixed by shaking. The cells were cultured overnight and the culture medium was replaced with 195 μL/well of fresh medium containing 205 nM CPT-11 and 5 μL/well of medium containing the test compound (the final concentration of DMSO was 1%). The culture plates were returned to incubator and cultured at 37° C., 5% CO2 for 5 days. At the day of experiment, medium was discarded and replaced with 100 μL of fresh serum-free DMEM medium containing MTT (0.5 mg/mL), and the culture was continued. 4 hours later, the medium was discarded and replaced with 100 μL/well of DMSO, the plate was shaken for 10 minutes in dark and the absorbance was measured at the wavelengths of 552 and 690 nm using a multi-function plate reader. Data were analyzed by Graph Pad Prism 6.0. The inhibitory effects of compounds on cell proliferation were plotted based on cell viability vs. the logarithm of compound concentration. Cell viability %=(ODcompound−ODbackground)/(ODDMSO−ODbackground)×100.
Table 3 summarizes the inhibitory effect data (IC50) of some compounds combined with CPT-11 on the proliferation of human colon cancer cell SW620.

Row | inhibition at 0.0001 µM [1] [%] | inhibition at 0.001 µM [1] [%] | inhibition at 0.01 µM [1] [%] | IC50 [2] [nM] | IC50 [3] [nM] | IC50 [1] [nM] | IC50 ([3]; Homo sapiens, SW-620, 120 h) [nM] | SMILES
1 | 9 | 55 | 91 | 20.9 | 27.4 |  |  | Cc1nc(N2CCN(C)CC2)n2c1cnc1ccc(-c3ccc(OCCCN(C)C)nc3)cc12 [Example 17, N,N-dimethyl-3-((5-(3-methyl-1-(4-methylpiperazin-1-yl)imidazo[1,5-a]quinoxalin-8-yl)pyridin-2-yl)oxy)propan-1-amine]
2 | 30 | 87 | 98 | 6.4 | 6.5 |  |  | Cc1nc(N2C[C@@H](C)N(C)[C@@H](C)C2)n2c1cnc1ccc(-c3ccc(OCCCN(C)C)nc3)cc12 [Example 18, N,N-dimethyl-3-((5-(3-methyl-1-((3S,5R)-3,4,5-trimethylpiperazin-1-yl)imidazo[1,5-a]quinoxalin-8-yl)pyridin-2-yl)oxy)propan-1-amine]
3 |  | 88 |  | 11.4 | 17.6 |  |  | Cc1nc(C(C)C)n2c1cnc1ccc(-c3ccc(OCCCN(C)C)nc3)cc12 [Example 19, N,N-dimethyl-3-((5-(1-isopropyl-3-methylimidazo[1,5-a]quinoxalin-8-yl)pyridin-2-yl)oxy)propan-1-amine]
4 |  | 82 |  | 21.3 | 35.9 |  |  | Cc1nc(C(C)C)n2c1cnc1ccc(-c3ccc(OCCCN(C)C)c(F)c3)cc12 [Example 20, N,N-dimethyl-3-(2-fluoro-4-(1-isopropyl-3-methylimidazo[1,5-a]quinoxalin-8-yl)phenoxy)propan-1-amine]
5 |  | 67 |  | 16.4 | 29.6 |  |  | Cc1nc(C(C)C)n2c1cnc1ccc(-c3ccc(OCCCN(C)C)c(C(F)(F)F)c3)cc12 [Example 21, N,N-dimethyl-3-(4-(1-isopropyl-3-methylimidazo[1,5-a]quinoxalin-8-yl)-2-(trifluoromethyl)phenoxy)propan-1-amine]
6 | 31 | 94 | 100 | 9.91 | 16.3 |  |  | Cc1nc(C(C)C)n2c1cnc1ccc(-c3ccc(OCCCN4CCCCC4)nc3)cc12 [Example 22, 1-isopropyl-3-methyl-8-(6-(3-(piperidin-1-yl)propoxy)pyridin-3yl)imidazo[1,5-a]quinoxaline]
7 | 30 | 84 | 98 | 11 | 20.8 |  |  | Cc1nc(C(C)C)n2c1cnc1ccc(-c3ccc(N4CCC(N(C)C)CC4)c(F)c3)cc12 [Example 24, N,N-dimethyl-1-(2-fluoro-4-(1-isopropyl-3-methylimidazo[1,5-a]quinoxalin-8-yl)phenyl)piperidin-4-amine]
8 |  | 69 |  | 73.3 | 66.6 |  |  | Cc1nc(C(C)C)n2c1cnc1ccc(-c3ccc(N4CCC(N(C)C)CC4)c(Cl)c3)cc12 [Example 25, N,N-dimethyl-1-(2-chloro-4-(1-isopropyl-3-methylimidazo[1,5-a]quinoxalin-8-yl)phenyl)piperidin-4-amine]
9 |  | 54 |  | 48.6 | 51 |  |  | Cc1nc(C(C)C)n2c1cnc1ccc(-c3ccc(N4CCC(N(C)C)CC4)c(C(F)(F)F)c3)cc12 [Example 26, N,N-dimethyl-1-(4-(1-isopropyl-3-methylimidazo[1,5-a]quinoxalin-8-yl)-2-(trifluoromethyl)phenyl)piperidin-4-amine]
10 |  |  |  | 9.2 |  | 0.62 | 10.1 | Cc1nc(N2C[C@@H](C)O[C@@H](C)C2)n2c1cnc1ccc(-c3ccc(OCCCN4CCC4)nc3)cc12 [Example 31, (2S,6R)-4-(8-(6-(3-(azetidin-1-yl)propoxy)pyridin-3-yl)-3-methylimidazo[1,5-a]quinoxalin-1-yl)-2,6-dimethylmorpholine]
11 |  |  |  | 7.6 |  | 0.1 | 9.2 | Cc1nc(N2C[C@@H](C)O[C@@H](C)C2)n2c1cnc1ccc(-c3ccc(OCCCN4CCCC4)nc3)cc12 [Example 32, (2S,6R)-2,6-dimethyl-4-(3-methyl-8-(6-(3-(pyrrolidin-1-yl)propoxy)pyridin-3-yl)imidazo[1,5-a]quinoxalin-1-yl)morpholine]
12 | 28 | 92 | 100 | 18.5 |  | 0.2 | 18.3 | Cc1nc(N2C[C@@H](C)O[C@@H](C)C2)n2c1cnc1ccc(-c3ccc(OCCCN4CCCCC4)nc3)cc12 [Example 33, (2S,6R)-2,6-dimethyl-4-(3-methyl-8-(6-(3-(piperidin-1-yl)propoxy)pyridin-3-yl)imidazo[1,5-a]quinoxalin-1-yl)morpholine]
13 |  | 40 |  | 58.8 | 72.6 |  |  | Cc1nc(N2C[C@@H](C)O[C@@H](C)C2)n2c1cnc1ccc(-c3ccc(OCCN(C)C)nc3)cc12 [Example 36, 2-((5-(1-((2S,6R)-2,6-dimethylmorpholino)-3-methylimidazo[1,5-a]quinoxalin-8-yl)pyridin-2-yl)oxy)-N,N-dimethylethan-1-amine]
14 | 12 | 66 | 100 | 24.9 | 17.6 |  |  | Cc1nc(N2C[C@@H](C)O[C@@H](C)C2)n2c1cnc1ccc(-c3ccc(OCCCN(C)C)c(C(F)(F)F)c3)cc12 [Example 37]
15 |  |  |  | 6.9 |  | 0.2 | 8.7 | Cc1nc(N2C[C@@H](C)O[C@@H](C)C2)n2c1cnc1ccc(-c3ccc(N4CCC(N(C)C)CC4)nc3)cc12 [Example 38, 1-(5-(1-((2S,6R)-2,6-dimethylmorpholino)-3-methylimidazo[1,5-a]quinoxalin-8-yl)pyridin-2-yl)-N,N-dimethylpiperidin-4-amine]

— patent US12653830B2, “Substituted imidazoquinoxaline compounds and uses thereof” (Impact Therapeutics (Shanghai), Inc, priority 2019, dated 2026)
